In experiment [1] the test system is P. acnes. The experiment can be described thus: Agar dilution method: growth of P. acnes and MIC, compounds tested singly. It is filed as cell-based, Propionibacterium acnes. Details: key to Growth Index (+++, ++, +, −) Plate 1 / Growth Index (+++, ++, +, −) Plate 2 / Growth Index (+++, ++, +, −) Plate 3 / Growth Index (+++, ++, +, −) Avg: +++: confluent growth (comparable to control); ++: less confluent growth; +: marked reduction in growth to multiple tiny, single colonies; −: no growth present. As to conditions: for MIC: Cutibacterium acnes, compound alone, MIC = concentration with marked reduction (+) of growth, read-out: MIC (mg/mL) as per P-11-0007 or P-11-0008 Addendum A. The protocol:
(§1) Several compounds including fatty acids such as DGLA, 15-OHEPA, and 15-HETrE were tested to determine their capacity to inhibit the growth of P. acnes. In an exemplary method, an agar dilution method was used to determine the minimum inhibitory concentration (MIC) of each tested compound. Briefly, the agar dilution method involved preparing a series of concentrations of each compound (e.g., nicotinamide, benzoyl peroxide, adapalene, metronidazole, DGLA, 15-OHEPA, and 15-HETrE) in a Reinforced Clostridial Agar (RCA) media that facilitates growth of P. acnes under anaerobic conditions. An inoculum of P. acnes was prepared by incubation of P. acnes for approximately seven days at 35-37° C. to achieve a ≧1.0 OD600 inoculum of P. acnes in RCM broth. A portion of this inoculum was then added to the surface of each plate as a 10 μL spot and incubated at 35-37° C. for 72 hours or more. Growth of P. acnes was then observed and compared to control plates in which no compound has been added, and positive inhibition plates prepared with erythromycin. […] The growth of P. acnes in the presence of nicotinamide, benzoyl peroxide, adapalene, metronidazole, DGLA, 15-OHEPA, and 15-HETrE was determined with varying concentrations of the compound (see, Table 2). Next, the MIC was determined as the concentration at which a marked reduction (+) occurs in the appearance of growth on the test plate (as per Clinical and Laboratory Standards Institute M11-A7).
(In general: In agar dilution the substance is mixed into plates at graded concentrations.)

Experiment [2] deals with P. acnes. The experiment in a line: Agar dilution method: growth of P. acnes and MIC, fatty acid compounds in combination with other compounds. As to conditions: for MIC (mg/mL) with 0.05 mg/mL 15-HETrE spike / MIC (mg/mL) with 0.1 mg/mL 15-OHEPA spike: itself an inhibitory concentration. It is filed as cell-based, Propionibacterium acnes. How it is done:
as §1, with “M11-A7). The compounds tested singly in Example 1 were tested in combination with one another to determine the capacity of the combination to inhibit the growth of P. acnes. In an exemplary method, the MIC was determined for each of the combination as described in Example 1. Briefly, test combinations included DGLA with nicotinamide, benzoyl peroxide, adapalene, or metronidazole; 15-HETrE with nicotinamide, benzoyl peroxide, adapalene, or metronidazole; and 15-OHEPA with nicotinamide, benzoyl peroxide, adapalene, or metronidazole. The tables below show the growth of P. acnes in the presence of 0.4 or 1.0 mg/mL DGLA with varying concentrations of nicotinamide, benzoyl peroxide, adapalene, or metronidazole (Table 3); the growth of P. acnes in the presence of 0.01 or 0.05 mg/mL 15-HETrE with varying concentrations of nicotinamide, benzoyl peroxide, adapalene, or metronidazole (Table 5); and the growth of P. acnes in the presence of 0.5 or 0.1 mg/mL 15-OHEPA with varying concentrations of nicotinamide, benzoyl peroxide, adapalene, or metronidazole (Table 7).” for “M11-A7).”

Three compounds from patent publication US8293790B2, “Pharmaceutical compositions comprising DGLA and benzoyl peroxide and methods of use thereof” (Dignity Sciences Limited, priority 2011, dated 2012) can be followed below.

≈ marks a conversion by molar mass, not a printed value.

Take `NC(=O)c1cccnc1` [Nicotinamide]: the MIC with P. acnes [1] lay in the range of 10 to 15 mg/mL (≈ 81.9 to 123 mM). Moreover, in the experiment with P. acnes [1] (compound at 1 mg/mL in agar), the “Growth Index (+++, ++, +, −) Avg” value is “+++”; the “Growth Index (+++, ++, +, −) Plate 1” value was “+++”; the “Growth Index (+++, ++, +, −) Plate 2” value is “+++”; the “Growth Index (+++, ++, +, −) Plate 3” value is “+++”. In the experiment on P. acnes [1] (compound at 5 mg/mL in agar), the “Growth Index (+++, ++, +, −) Avg” value is “+++”; the “Growth Index (+++, ++, +, −) Plate 1” value is recorded as “+++”; the “Growth Index (+++, ++, +, −) Plate 2” value is recorded as “+++”; the “Growth Index (+++, ++, +, −) Plate 3” value was “+++”. In the experiment on P. acnes [1] (compound at 10 mg/mL in agar), the “Growth Index (+++, ++, +, −) Avg” value is given as “++”; the “Growth Index (+++, ++, +, −) Plate 1” value is “++”; the “Growth Index (+++, ++, +, −) Plate 2” value is listed as “++”; the “Growth Index (+++, ++, +, −) Plate 3” value is “++”. In the experiment with P. acnes [1] (compound at 15 mg/mL in agar), the “Growth Index (+++, ++, +, −) Avg” value is “+”; the “Growth Index (+++, ++, +, −) Plate 1” value is on record as “−”; the “Growth Index (+++, ++, +, −) Plate 2” value is “+”; the “Growth Index (+++, ++, +, −) Plate 3” value is “+”. For the same compound, in the experiment on P. acnes [2], the “MIC (mg/mL) with 0.05 mg/mL 15-HETrE spike” value is under 1 mg/mL, the “MIC (mg/mL) with 0.1 mg/mL 15-OHEPA spike” value was under 1 mg/mL, the “growth of P. acnes in combination with 15-HETrE compared with 15-HETrE alone” value is “did not reduce the growth of P. Acnes below that of 15-HETrE used alone” and the “growth of P. acnes in combination with 15-OHEPA compared with 15-OHEPA alone” value is “did not reduce the growth of P. Acnes below that of 15 OHEPA used alone”. In addition, the “growth of P. acnes in combination with DGLA compared with DGLA alone” value with P. acnes [2] is “did not reduce the growth of P. Acnes below that of DGLA used alone”.
In the case of `Cc1ncc([N+](=O)[O-])n1CCO` [Metronidazole], the MIC in the experiment on P. acnes [1] was over 1 mg/mL. In the experiment on P. acnes [1] (compound at 0.2 mg/mL in agar), the “Growth Index (+++, ++, +, −) Avg” value is “+++”; the “Growth Index (+++, ++, +, −) Plate 1” value was “+++”; the “Growth Index (+++, ++, +, −) Plate 2” value was “+++”; the “Growth Index (+++, ++, +, −) Plate 3” value is “+++”. Besides, in the experiment on P. acnes [1] (compound at 0.4 mg/mL in agar), the “Growth Index (+++, ++, +, −) Avg” value is “+++”; the “Growth Index (+++, ++, +, −) Plate 1” value was “+++”; the “Growth Index (+++, ++, +, −) Plate 2” value was “+++”; the “Growth Index (+++, ++, +, −) Plate 3” value is “+++”. Further, in the experiment on P. acnes [1] (compound at 0.6 mg/mL in agar), the “Growth Index (+++, ++, +, −) Avg” value was “+++”; the “Growth Index (+++, ++, +, −) Plate 1” value is “+++”; the “Growth Index (+++, ++, +, −) Plate 2” value was “+++”; the “Growth Index (+++, ++, +, −) Plate 3” value was “+++”. For the same compound, in the experiment on P. acnes [1] (compound at 0.8 mg/mL in agar), the “Growth Index (+++, ++, +, −) Avg” value was “+++”; the “Growth Index (+++, ++, +, −) Plate 1” value is “+++”; the “Growth Index (+++, ++, +, −) Plate 2” value is listed as “+++”; the “Growth Index (+++, ++, +, −) Plate 3” value is reported as “+++”. For the same compound, in the experiment on P. acnes [1] (compound at 1.0 mg/mL in agar), the “Growth Index (+++, ++, +, −) Avg” value is given as “+++”; the “Growth Index (+++, ++, +, −) Plate 1” value was “+++”; the “Growth Index (+++, ++, +, −) Plate 2” value was “++”; the “Growth Index (+++, ++, +, −) Plate 3” value was “+++”. Further, the “MIC (mg/mL) with 0.01 mg/mL 15-HETrE spike” value with P. acnes [2] (0.01 mg/mL 15-HETrE spike) is over 1 mg/mL. In the experiment on P. acnes [2], the “MIC (mg/mL) with 0.05 mg/mL 15-HETrE spike” value is listed as under 0.2 mg/mL, the “MIC (mg/mL) with 0.1 mg/mL 15-OHEPA spike” value is on record as under 0.2 mg/mL, the “growth of P. acnes in combination with 15-HETrE compared with 15-HETrE alone” value is on record as “did not reduce the growth of P. Acnes below that of 15-HETrE used alone” and the “growth of P. acnes in combination with 15-OHEPA compared with 15-OHEPA alone” value is given as “did not reduce the growth of P. Acnes below that of 15 OHEPA used alone”. Further, the “growth of P. acnes in combination with DGLA compared with DGLA alone” value in the experiment with P. acnes [2] was “did not reduce the growth of P. Acnes below that of DGLA used alone”. Moreover, the “MIC (mg/mL) with 0.05 mg/mL 15-OHEPA spike” value with P. acnes [2] (0.05 mg/mL 15-OHEPA spike) is listed as over 1 mg/mL. Also, the “MIC (mg/mL) with 0.4 mg/mL dGLA spike” value with P. acnes [2] (0.4 mg/mL dGLA spike, dGLA supplied by Sigma, cat# E4504) is given as over 1 mg/mL. The “MIC (mg/mL) with 1.0 mg/mL dGLA spike” value in the experiment on P. acnes [2] (1.0 mg/mL dGLA spike, dGLA supplied by Cayman, cat# 90230) was over 1 mg/mL.
On to `O=C(OOC(=O)c1ccccc1)c1ccccc1` [Benzoyl Peroxide, benzoyl peroxide], for which the MIC in the experiment with P. acnes [1] fell in the range of 0.6 to 0.8 mg/mL (≈ 2.48 to 3.3 mM). Moreover, in the experiment on P. acnes [1] (compound at 0.2 mg/mL in agar), the “Growth Index (+++, ++, +, −) Avg” value is “+++”; the “Growth Index (+++, ++, +, −) Plate 1” value is “+++”; the “Growth Index (+++, ++, +, −) Plate 2” value is on record as “+++”; the “Growth Index (+++, ++, +, −) Plate 3” value was “+++”. Further, in the experiment on P. acnes [1] (compound at 0.4 mg/mL in agar), the “Growth Index (+++, ++, +, −) Avg” value is listed as “+++”; the “Growth Index (+++, ++, +, −) Plate 1” value is “+++”; the “Growth Index (+++, ++, +, −) Plate 2” value is listed as “+++”; the “Growth Index (+++, ++, +, −) Plate 3” value is “+++”. Also, in the experiment with P. acnes [1] (compound at 0.6 mg/mL in agar), the “Growth Index (+++, ++, +, −) Avg” value is “++”; the “Growth Index (+++, ++, +, −) Plate 1” value is recorded as “++”; the “Growth Index (+++, ++, +, −) Plate 2” value is listed as “+++”; the “Growth Index (+++, ++, +, −) Plate 3” value is “++”. For the same compound, in the experiment with P. acnes [1] (compound at 0.8 mg/mL in agar), the “Growth Index (+++, ++, +, −) Avg” value is recorded as “+”; the “Growth Index (+++, ++, +, −) Plate 1” value is recorded as “+”; the “Growth Index (+++, ++, +, −) Plate 2” value is recorded as “+”; the “Growth Index (+++, ++, +, −) Plate 3” value is “+”. Further, in the experiment on P. acnes [2], the “MIC (mg/mL) with 0.05 mg/mL 15-HETrE spike” value is reported as under 0.2 mg/mL, the “MIC (mg/mL) with 0.1 mg/mL 15-OHEPA spike” value was under 0.2 mg/mL and the “growth of P. acnes in combination with 15-HETrE compared with 15-HETrE alone” value was “did not reduce the growth of P. Acnes below that of 15-HETrE used alone”.
